Measured values: patent US12409139B2, “Stable parenteral formulations of duloxetine” (LEIUTIS PHARMACEUTICALS LLP, priority 2020, dated 2025)
Like-named read-outs stand apart in the source and are kept apart here.

How the values were obtained:
[1] = for Assay (%) / Total Impurities / pH: RT-25° C.
Experimental: The solution state stability of duloxetine was studied in various buffers for 24 hours.
The samples were stored for 24 hours and analyzed for pH, assay and total impurities by standard analytical procedures.

[2] = commercial delayed release (enteric coated) capsules, oral; cited from earlier work
[3] = Acetate Buffer (pH-5.5), Initial
[4] = Acetate Buffer (pH-6.4), Initial
[5] = Aspartic acid + Boric Acid Buffer (pH-5.5), 24 h
[6] = Aspartic acid + Boric Acid Buffer (pH-5.5), Initial
[7] = Aspartic acid + Boric Acid Buffer (pH-6.4), 24 h
[8] = Aspartic acid + Boric Acid Buffer (pH-6.4), Initial
[9] = Glycine Buffer (pH-5.5), Initial
[10] = Glycine Buffer (pH-6.4), Initial
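Throughout, for Solubility observation: solubility and solution-stability study of the drug dissolved in assorted buffers across a range of pH values.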

In the case of `CNCCC(Oc1cccc2ccccc12)c1cccs1` (single isomer, unassigned; (+)) [duloxetine, (+)-N-methyl-3-(1-naphthalenyloxy)-3-(2-thienyl) propan-1-amine], the “Assay (%)” value ([1]; Acetate Buffer (pH-5.5), 24 h) is reported as 92.4%, the “Total Impurities” value ([1]; Acetate Buffer (pH-5.5), 24 h) is reported as 0.2 and the pH ([1]; Acetate Buffer (pH-5.5), 24 h) is reported as 5.4. The “Assay (%)” value [1, 3] was 93.9%, the “Total Impurities” value [1, 3] was 0.14 and the pH [1, 3] was 5.32. The “Assay (%)” value ([1]; Acetate Buffer (pH-6.4), 24 h) was 90.3%, the “Total Impurities” value ([1]; Acetate Buffer (pH-6.4), 24 h) was 0.1 and the pH ([1]; Acetate Buffer (pH-6.4), 24 h) was 6.1. For the same compound, the “Assay (%)” value [1, 4] was 94.3%, the “Total Impurities” value [1, 4] was 0.1 and the pH [1, 4] was 6.38. For the same compound, the “Assay (%)” value [1, 5] was 93.3%, the “Total Impurities” value [1, 5] was 0.5 and the pH [1, 5] was 5.7. The “Assay (%)” value [1, 6] was 93.0%, the “Total Impurities” value [1, 6] was 0.3 and the pH [1, 6] was 5.8. For the same compound, the “Assay (%)” value [1, 7] was 97.8%, the “Total Impurities” value [1, 7] was 0.5 and the pH [1, 7] was 6.5. The “Assay (%)” value [1, 8] was 97.9%, the “Total Impurities” value [1, 8] was 0.3 and the pH [1, 8] was 6.6. The “Assay (%)” value ([1]; Glycine Buffer (pH-5.5), 24 h) was 104.8%, the “Total Impurities” value ([1]; Glycine Buffer (pH-5.5), 24 h) was 0.2 and the pH ([1]; Glycine Buffer (pH-5.5), 24 h) was 5.5. The “Assay (%)” value [1, 9] was 105%, the “Total Impurities” value [1, 9] was 0.12 and the pH [1, 9] was 5.59. For the same compound, the “Assay (%)” value ([1]; Glycine Buffer (pH-6.4), 24 h) was 96.6%, the “Total Impurities” value ([1]; Glycine Buffer (pH-6.4), 24 h) was 0.18 and the pH ([1]; Glycine Buffer (pH-6.4), 24 h) was 6.35. The “Assay (%)” value [1, 10] was 97.7%, the “Total Impurities” value [1, 10] was 0.10 and the pH [1, 10] was 6.23. The “Solution state stability in terms of assay and total impurities (in words)” value ([1]; acetate buffer at pH-5.5 and pH-6.4 and glycine buffer at pH-5.5 and pH-6.4, 24 hours) was “best results”, the “Solution state stability (in words)” value ([1]; all the buffers tested, stored for 24 hours) was “satisfactory stability” and the Solubility observation (0.1N Sodium hydroxide buffer, pH 4.5, 10 mg/ml) was “Insoluble”. The Solubility observation (0.1N Sodium hydroxide buffer, pH 5.5, 10 mg/ml) was “Insoluble”, the Solubility observation (0.1N Sodium hydroxide buffer, pH 6.4, 10 mg/ml) was “Insoluble” and the Solubility observation (Acetate buffer, pH 4.5, 10 mg/ml) was “Clear solution”. For the same compound, the Solubility observation (Acetate buffer, pH 5.5, 10 mg/ml) was “Clear solution”, the Solubility observation (Acetate buffer, pH 6.4, 10 mg/ml) was “Clear solution” and the Solubility observation (Acetate buffer, pH 7.5, 10 mg/ml) was “Clear solution”. The Solubility observation (Alanine buffer, pH 4.5, 10 mg/ml) was “Clear solution”, the Solubility observation (Alanine buffer, pH 5.5, 10 mg/ml) was “Clear solution” and the Solubility observation (Alanine buffer, pH 6.4, 10 mg/ml) was “Insoluble”. The Solubility observation (Aspartic acid and Boric acid buffer, pH 4.5, 10 mg/ml) was “Clear solution”, the Solubility observation (Aspartic acid and Boric acid buffer, pH 5.5, 10 mg/ml) was “Clear solution” and the Solubility observation (Aspartic acid and Boric acid buffer, pH 6.4, 10 mg/ml) was “Insoluble”. The Solubility observation (Citrate buffer, pH 4.5, 10 mg/ml) was “Insoluble”, the Solubility observation (Citrate buffer, pH 5.5, 10 mg/ml) was “Insoluble” and the Solubility observation (Citrate buffer, pH 6.4, 10 mg/ml) was “Insoluble”. The Solubility observation (Glycine buffer, pH 4.5, 10 mg/ml) was “Clear solution”, the Solubility observation (Glycine buffer, pH 5.5, 10 mg/ml) was “Clear solution” and the Solubility observation (Glycine buffer, pH 6.4, 10 mg/ml) was “Clear solution”. For the same compound, the Solubility observation (Glycine buffer, pH 7.5, 10 mg/ml) was “Clear solution”, the Solubility observation (Histidine buffer, pH 4.5, 10 mg/ml) was “Insoluble” and the Solubility observation (Histidine buffer, pH 5.5, 10 mg/ml) was “Insoluble”. For the same compound, the Solubility observation (Histidine buffer, pH 6.4, 10 mg/ml) was “Insoluble”, the Solubility observation (Isoleucine buffer, pH 4.5, 10 mg/ml) was “Clear solution” and the Solubility observation (Isoleucine buffer, pH 5.5, 10 mg/ml) was “Clear solution”. The Solubility observation (Isoleucine buffer, pH 6.4, 10 mg/ml) was “Clear solution”, the Solubility observation (Isoleucine buffer, pH 7.5, 10 mg/ml) was “Clear solution” and the Solubility observation (Lactic acid buffer, pH 4.5, 10 mg/ml) was “Clear solution”. The Solubility observation (Lactic acid buffer, pH 5.5, 10 mg/ml) was “Clear solution”, the Solubility observation (Lactic acid buffer, pH 6.4, 10 mg/ml) was “Clear solution” and the Solubility observation (Lactic acid buffer, pH 7.5, 10 mg/ml) was “Clear solution”. For the same compound, the Solubility observation (Leucine buffer, pH 4.5, 10 mg/ml) was “Clear solution”, the Solubility observation (Leucine buffer, pH 5.5, 10 mg/ml) was “Clear solution” and the Solubility observation (Leucine buffer, pH 6.4, 10 mg/ml) was “Clear solution”. For the same compound, the Solubility observation (Leucine buffer, pH 7.5, 10 mg/ml) was “Clear solution”, the Solubility observation (Lysine buffer, pH 4.5, 10 mg/ml) was “Insoluble” and the Solubility observation (Lysine buffer, pH 5.5, 10 mg/ml) was “Insoluble”. For the same compound, the Solubility observation (Lysine buffer, pH 6.4, 10 mg/ml) was “Insoluble”, the Solubility observation (Meglumine buffer, pH 4.5, 10 mg/ml) was “Insoluble” and the Solubility observation (Meglumine buffer, pH 5.5, 10 mg/ml) was “Insoluble”. For the same compound, the Solubility observation (Meglumine buffer, pH 6.4, 10 mg/ml) was “Insoluble”, the Solubility observation (Methionine buffer, pH 4.5, 10 mg/ml) was “Clear solution” and the Solubility observation (Methionine buffer, pH 5.5, 10 mg/ml) was “Clear solution”. For the same compound, the Solubility observation (Methionine buffer, pH 6.4, 10 mg/ml) was “Clear solution”, the Solubility observation (Methionine buffer, pH 7.5, 10 mg/ml) was “Clear solution” and the Solubility observation (Phenyl alanine buffer, pH 4.5, 10 mg/ml) was “Clear solution”. For the same compound, the Solubility observation (Phenyl alanine buffer, pH 5.5, 10 mg/ml) was “Clear solution”, the Solubility observation (Phenyl alanine buffer, pH 6.4, 10 mg/ml) was “Insoluble” and the Solubility observation (Phosphate buffer, pH 4.5, 10 mg/ml) was “Clear solution”. The Solubility observation (Phosphate buffer, pH 5.5, 10 mg/ml) was “Insoluble”, the Solubility observation (Phosphate buffer, pH 6.4, 10 mg/ml) was “Insoluble” and the Solubility observation (Proline buffer, pH 4.5, 10 mg/ml) was “Clear solution”. The Solubility observation (Proline buffer, pH 5.5, 10 mg/ml) was “Clear solution”, the Solubility observation (Proline buffer, pH 6.4, 10 mg/ml) was “Clear solution” and the Solubility observation (Proline buffer, pH 7.5, 10 mg/ml) was “Clear solution”. For the same compound, the Solubility observation (Serine buffer, pH 4.5, 10 mg/ml) was “Clear solution”, the Solubility observation (Serine buffer, pH 5.5, 10 mg/ml) was “Clear solution” and the Solubility observation (Serine buffer, pH 6.4, 10 mg/ml) was “Clear solution”. The Solubility observation (Serine buffer, pH 7.5, 10 mg/ml) was “Insoluble”, the Solubility observation (Sodium phosphate buffer, pH 4.5, 10 mg/ml) was “Clear solution” and the Solubility observation (Sodium phosphate buffer, pH 5.5, 10 mg/ml) was “Insoluble”. The Solubility observation (Sodium phosphate buffer, pH 6.4, 10 mg/ml) was “Insoluble”, the Solubility observation (Succinate buffer, pH 4.5, 10 mg/ml) was “Clear solution” and the Solubility observation (Succinate buffer, pH 5.5, 10 mg/ml) was “Insoluble”. The Solubility observation (Succinate buffer, pH 6.4, 10 mg/ml) was “Insoluble”, the Solubility observation (Tartaric acid buffer, pH 4.5, 10 mg/ml) was “Insoluble” and the Solubility observation (Tartaric acid buffer, pH 5.5, 10 mg/ml) was “Insoluble”. The Solubility observation (Tartaric acid buffer, pH 6.4, 10 mg/ml) was “Insoluble”, the Solubility observation (Tris buffer, pH 4.5, 10 mg/ml) was “Insoluble” and the Solubility observation (Tris buffer, pH 5.5, 10 mg/ml) was “Insoluble”. For the same compound, the Solubility observation (Tris buffer, pH 6.4, 10 mg/ml) was “Insoluble”, the Solubility observation (Tryptophan buffer, pH 4.5, 10 mg/ml) was “Clear solution” and the Solubility observation (Tryptophan buffer, pH 5.5, 10 mg/ml) was “Clear solution”. For the same compound, the Solubility observation (Tryptophan buffer, pH 6.4, 10 mg/ml) was “Clear solution”, the Solubility observation (Tryptophan buffer, pH 7.5, 10 mg/ml) was “Clear solution” and the Solubility observation (Valine buffer, pH 4.5, 10 mg/ml) was “Clear solution”. The Solubility observation (Valine buffer, pH 5.5, 10 mg/ml) was “Clear solution”, the Solubility observation (Valine buffer, pH 6.4, 10 mg/ml) was “Clear solution” and the Solubility observation (Valine buffer, pH 7.5, 10 mg/ml) was “Clear solution”. For the same compound, the “time for the absorption to begin” value [2] was 2 h.
